Test results taken from PMC2716445 (Journal of Biological Inorganic Chemistry, 2009).
“Also recorded” adds a separate entry of the source. Where two headings read alike, the source gives them in different places.

Columns and labels:
[1] = cited from earlier work
[2] = cited from earlier work; remark: listed apart in the source
[3] = SOD activity, xanthine/xanthine oxidase with NBT detection; format: biochemical; details: read-out: SOD IC50, 10 μM NBT, pH 7.8, 25 °C
PC12 cells [4] = assay: Inhibition of STS-induced cell death in PC12 cells; format: cell-based, rat; details: STS 5 μM, 18–24 h, XTT viability
[5] = In vitro stability in simulated gastric fluid; format: in vitro ADME; details: intact compound after 90 min at 37 °C, pH approximately 1.2, HPLC
Octanol partitioning = format: physicochemical; details: octanol/aqueous; ± SD of triplicates
[6] = In vivo oral availability, plasma levels after intragastric gavage; design: species or system Sprague–Dawley rats; details: rat, mean ± SD; for Plasma concentration 30 min: dose per compound 0.23-2.7 mg kg^−1
serum albumin = serum albumin (Homo sapiens, UniProt P02768); assay: In vitro binding to serum albumin; details: data not shown
[7] = tested on: capillary endothelial cells; details: endothelial cell culture model; cited from earlier work
[8] = tested on: capillary endothelial cells; details: cited from earlier work
[9] = Peroxidase activity with tetramethyl benzidine as substrate; details: 5 μM sample, 0.2 mM hydrogen peroxide, 0.225 mM TMB, 27 °C; ± SD of triplicates
[10] = Catalase activity, disappearance of hydrogen peroxide; details: initial hydrogen peroxide 100 μM; ± SD of triplicates
PC12 cells [11] = assay: Cytotoxicity in PC12 cells; format: cell-based, rat; details: data not shown
[12] = EUK-425 plasma levels after PO versus IV administration; format: in vivo, Sprague–Dawley rats; details: rats, 5 mg kg^−1 PO, 1 mg kg^−1 IV
[13] = tested on: capillary endothelial cells; assay: Mitigation of ionizing radiation-induced apoptosis in endothelial cell culture; format: cell-based; details: endothelial cell culture model; unpublished data
[14] = tested on: capillary endothelial cells; assay: Cytotoxicity in endothelial cell culture model; format: cell-based; details: unpublished data

serum albumin, sequence (P02768 25-609 limits assumed): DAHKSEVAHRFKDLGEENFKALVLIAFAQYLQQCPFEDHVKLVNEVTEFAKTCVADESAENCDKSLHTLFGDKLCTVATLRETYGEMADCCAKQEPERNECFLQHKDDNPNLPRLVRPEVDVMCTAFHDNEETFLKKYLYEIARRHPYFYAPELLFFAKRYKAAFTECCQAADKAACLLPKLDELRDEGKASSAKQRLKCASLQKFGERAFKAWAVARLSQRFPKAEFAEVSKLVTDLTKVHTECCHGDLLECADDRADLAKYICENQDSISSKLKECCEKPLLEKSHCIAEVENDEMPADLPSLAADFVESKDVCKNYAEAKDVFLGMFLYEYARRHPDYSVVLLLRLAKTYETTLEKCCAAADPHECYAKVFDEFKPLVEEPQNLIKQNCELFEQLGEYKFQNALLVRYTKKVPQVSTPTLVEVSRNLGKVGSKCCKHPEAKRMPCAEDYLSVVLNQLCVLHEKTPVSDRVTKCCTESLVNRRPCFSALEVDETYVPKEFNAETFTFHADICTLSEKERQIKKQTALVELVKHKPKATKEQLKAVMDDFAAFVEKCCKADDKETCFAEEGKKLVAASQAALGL

## COC(=O)c1c2nc(c(C(F)(F)F)c3ccc([n-]3)c(C(=O)OC)c3nc(c(C(F)(F)F)c4ccc1[n-]4)C=C3)C=C2.[Cl-].[Mn+3] [AEOL11207, 5,15-bis(methoxycarbonyl)-10,20-bistrifluoromethylporphyrinato manganese(III) chloride, reference compound]
[1]; mice, after subcutaneous or oral administration
  Presence in brain tissue: present in the brain tissue
[2]; normalized to Cu/Zn SOD, assay methods differed
  SOD activity, fold less active than Cu/Zn SOD: 123 fold

## C1=Cc2nc1cc1ccc([n-]1)c(C1CC1)c1nc(cc3ccc([n-]3)c2C2CC2)C=C1.CC(=O)[O-].[Mn+3] [EUK-418, manganese(III) 5,15-dicyclopropylporphine acetate]
[3]
  IC50: 1.73 µM
PC12 cells [4]
  Protection of PC12 cells against STS-induced cell death: protect PC12 cells against STS-induced cell death; also recorded: relatively poor protector
[5]
  SGF stability: 92%
Octanol partitioning
  Log10 P: 0.548 ± 0.009
  P (octanol partitioning coefficient): 3.53 ± 0.14
[6]
  Plasma concentration 30 min: 128 ± 83 ng/mL
  Plasma concentration 60 min: 250 ± 147 ng/mL
  Plasma concentration 120 min: 245 ± 145 ng/mL
  Plasma concentration 240 min: 299 ± 224 ng/mL
  Plasma concentration 360 min: 259 ± 166 ng/mL
Serum albumin
  Binding to serum albumin: bind to serum albumin
[7]
  Mitigation of apoptosis induced by ionizing radiation: mitigated apoptosis induced by ionizing radiation
[8]
  Cytotoxicity in endothelial cell culture model: greatest cytotoxicity
[1]
  Oral bioavailability in mice: orally bioavailable in mice
[1]; mice, selected tissues
  Tissue distribution after oral administration: kidney > liver > lung ≫ brain
[9]
  POD: 0.63 ± 0.08 μM TMB min^−1
[10]
  CAT: 0.47 ± 0.10 μM H2O2 min^−1

## C1=Cc2nc1cc1ccc([n-]1)c(-c1ccccc1)c1nc(cc3ccc([n-]3)c2-c2ccccc2)C=C1.CC(=O)[O-].[Mn+3] [EUK-423, manganese(III) 5,15-diphenylporphine acetate]
PC12 cells [4]
  Protection of PC12 cells against STS-induced cell death: protect PC12 cells against STS-induced cell death; also recorded: most protective
[5]
  SGF stability: 91%
Octanol partitioning
  Log10 P: 0.907 ± 0.002
  P (octanol partitioning coefficient): 8.07 ± 0.10
[6]
  Plasma concentration 30 min: 25 ± 7 ng/mL
  Plasma concentration 60 min: 53 ± 19 ng/mL
  Plasma concentration 120 min: 48 ± 23 ng/mL
  Plasma concentration 240 min: 110 ± 61 ng/mL
  Plasma concentration 360 min: 118 ± 17 ng/mL
Serum albumin
  Binding to serum albumin: bind to serum albumin
[7]
  Mitigation of apoptosis induced by ionizing radiation: mitigated apoptosis induced by ionizing radiation
[8]
  Cytotoxicity in endothelial cell culture model: intermediate toxicity
[9]
  POD: 0.61 ± 0.05 μM TMB min^−1
[10]
  CAT: 0.45 ± 0.18 μM H2O2 min^−1

## O=C(O)c1ccc(-c2c3nc(c(-c4ccc(C(=O)O)cc4)c4ccc([n-]4)c(-c4ccc(C(=O)O)cc4)c4nc(c(-c5ccc(C(=O)O)cc5)c5ccc2[n-]5)C=C4)C=C3)cc1.[Mn+3] [MnTBAP, manganese(III) tetrakis(4-benzoic acid) porphyrin]
[2]; earlier reported activity due to Mn aggregate impurities
  SOD activity: no SOD activity

## manganese(III) 5,10,15,20-tetraethylporphine acetate [EUK-425]
[3]
  IC50: 12.5 µM
PC12 cells [4]
  Protection of PC12 cells against STS-induced cell death: not significantly protective; also recorded: no cytoprotective activity
PC12 cells [11]
  Cytotoxicity in PC12 cells: cytotoxic; also recorded: most cytotoxic
[5]
  SGF stability: 97%
Octanol partitioning
  Log10 P: 0.932 ± 0.006
  P (octanol partitioning coefficient): 8.56 ± 0.35
[6]
  Plasma concentration 30 min: 52 ± 19 ng/mL
  Plasma concentration 60 min: 48 ± 21 ng/mL
  Plasma concentration 120 min: 78 ± 47 ng/mL
  Plasma concentration 240 min: 96 ± 20 ng/mL
[12]
  Detection in plasma by LC-MS/MS after oral gavage and intravenous injection: detected in plasma
Serum albumin
  Binding to serum albumin: bind to serum albumin
[9]
  POD: 0.58 ± 0.03 μM TMB min^−1
[10]
  CAT: 0.57 ± 0.15 μM H2O2 min^−1

## manganese(III) 5,15-di-3,4-dimethoxyphenylporphine acetate [EUK-450]
[3]
  IC50: 6.39 µM
PC12 cells [4]
  Protection of PC12 cells against STS-induced cell death: not significantly protective; also recorded: no cytoprotective activity
PC12 cells [11]
  Cytotoxicity in PC12 cells: cytotoxic; also recorded: most cytotoxic
[5]
  SGF stability: 98%
Octanol partitioning
  Log10 P: 0.650 ± 0.010
  P (octanol partitioning coefficient): 4.46 ± 0.11
[6]
  Plasma concentration 30 min: 11 ± 10 ng/mL
  Plasma concentration 60 min: 15 ± 9 ng/mL
  Plasma concentration 120 min: 48 ± 46 ng/mL
  Plasma concentration 240 min: 53 ± 53 ng/mL
  Plasma concentration 360 min: 47 ± 38 ng/mL
[9]
  POD: 0.66 ± 0.10 μM TMB min^−1
[10]
  CAT: 0.58 ± 0.08 μM H2O2 min^−1

## manganese(III) 5,15-dicyclohexylporphine chloride [EUK-452]
[3]
  IC50: 11.6 µM
PC12 cells [4]
  Protection of PC12 cells against STS-induced cell death: not significantly protective; also recorded: no cytoprotective activity
PC12 cells [11]
  Cytotoxicity in PC12 cells: cytotoxic; also recorded: most cytotoxic
[5]
  SGF stability: 98%
Octanol partitioning
  Log10 P: 1.973 ± 0.008
  P (octanol partitioning coefficient): 94.0 ± 1.7
[6]
  Plasma concentration 30 min: 57 ± 50 ng/mL
  Plasma concentration 60 min: 52 ± 42 ng/mL
  Plasma concentration 120 min: 75 ± 63 ng/mL
  Plasma concentration 240 min: 75 ± 76 ng/mL
  Plasma concentration 360 min: 71 ± 63 ng/mL
[9]
  POD: 0.63 ± 0.05 μM TMB min^−1
[10]
  CAT: 0.54 ± 0.06 μM H2O2 min^−1

## manganese(III) 5,15-dipropylporphine chloride [EUK-453]
[3]
  IC50: 5.95 µM
PC12 cells [4]
  Protection of PC12 cells against STS-induced cell death: not significantly protective; also recorded: no cytoprotective activity
PC12 cells [11]
  Cytotoxicity in PC12 cells: cytotoxic; also recorded: most cytotoxic
[5]
  SGF stability: 98%
Octanol partitioning
  Log10 P: 0.619 ± 0.017
  P (octanol partitioning coefficient): 4.16 ± 0.16
[6]
  Plasma concentration 30 min: 8.8 ± 5.9 ng/mL
  Plasma concentration 60 min: 8.1 ± 5.5 ng/mL
  Plasma concentration 120 min: 7.7 ± 6.1 ng/mL
  Plasma concentration 240 min: 7.7 ± 6.0 ng/mL
  Plasma concentration 360 min: 4.6 ± 4.2 ng/mL
[9]
  POD: 0.56 ± 0.03 μM TMB min^−1
[10]
  CAT: 0.50 ± 0.11 μM H2O2 min^−1

## manganese(III) 5,15-ditetrahydropyranyoporphine chloride [EUK-451]
[3]
  IC50: 3.36 µM
PC12 cells [4]
  Protection of PC12 cells against STS-induced cell death: protect PC12 cells against STS-induced cell death; also recorded: most protective
[5]
  SGF stability: 100%
Octanol partitioning
  Log10 P: −0.660 ± 0.011
  P (octanol partitioning coefficient): 0.22 ± 0.01
[6]
  Plasma concentration 30 min: 44 ± 38 ng/mL
  Plasma concentration 60 min: 61 ± 54 ng/mL
  Plasma concentration 120 min: 66 ± 62 ng/mL
  Plasma concentration 240 min: 107 ± 102 ng/mL
  Plasma concentration 360 min: 86 ± 70 ng/mL
[13]
  Mitigation of apoptosis induced by ionizing radiation: potent mitigator
[14]
  Cytotoxicity in endothelial cell culture model: significantly lower cytotoxicity than the other EUK-400 compounds
[9]
  POD: 0.59 ± 0.023 μM TMB min^−1
[10]
  CAT: 0.64 ± 0.25 μM H2O2 min^−1
